In US20150038707A1, “PROCESS FOR MAKING CGRP RECEPTOR ANTAGONISTS” (Merck Sharp & Dohme Corp., priority 2012, published 2015):
“And” between values parts separate entries of the source, which are not always exact repeats. Identical values can stand only once.

Key:
Format in all cases: in vivo
[1] = system: female Aedes aegypti (Thailand strain) mosquitoes; experiment: Contact irritancy assay on mosquitoes (Example 2); conditions: netting treated at 0.0025-2.5 nmol/cm^2; 10 minutes
Protocol: (§1) Four compounds of formula (I) were tested for contact irritancy (i.e., movement away from the source after physical contact) at low doses on female Aedes aegypti (Thailand strain) mosquitoes. The contact irritant response was determined by use of the contact irritant assay disclosed by Grieco et al. in “A New Classification System for the Actions of IRS Chemicals Traditionally Used for Malaria Control,” Plos One, Issue 8 (2007) (available at www.plosone.org). The assay used was a cylindrical assembly that included a metal treatment end to which 10 mosquitoes were introduced and a clear receiving chamber. The treatment end included a netting strip (nylon organdy) that was treated with the insecticide of interest at the relevant dose. A butterfly valve separated the treatment end from the remainder of the assembly.
Each composition was applied to the netting strip at a varied dose via a 1.5 ml acetone solution. Four (4) treatment concentrations were used—0.0025 nmol/cm^2, 0.025 nmol/cm^2, 0.25 nmol/cm^2 and 2.5 nmol/cm^2. Netting was allowed to dry for 15 minutes prior to placement in the cylinder. Control assays were performed with netting treated with acetone only.
For each run, 10 mosquitoes were transferred into the treatment end of the assembly and, after 30 seconds, the butterfly valve was opened. The valve was closed after 10 minutes and the number of mosquitoes in the clear end (i.e., the number of escaped mosquitoes) was tested.

[2] = system: female Aedes aegypti (Thailand strain) mosquitoes; experiment: Spatial repellency assay on mosquitoes (Example 3); conditions: netting treated at 0.0025-2.5 nmol/cm^2
Protocol: (§2) The four compounds of formula I described in Example 2 were tested for spatial repellency (directed movement away from the chemical source without the insect making physical contact with the treated surface) at low doses on female Aedes aegypti (Thailand strain) mosquitoes. The spatial repellency response was determined by use of the spatial repellency assay disclosed by Grieco et al. in “A New Classification System for the Actions of IRS Chemicals Traditionally Used for Malaria Control” in Plos One, Issue 8 (2007) (available at www.plosone.org) which is incorporated herein by reference for all relevant and consistent purposes. The assay used was a cylindrical assembly that included a treatment chamber at one end and a control chamber at the other end. The treatment chamber included a netting strip (nylon organdy) that was treated with the insecticide of interest at the relevant dose. The treatment chamber and control chamber were connected by a clear cylinder and were separated from the clear cylinder by butterfly valves. Twenty (20) mosquitoes were introduced into the clear central chamber and the butterfly valves were opened after 30 seconds. After 10 minutes, the valves were closed and the number of mosquitoes in each chamber was counted.
The compositions were applied to the net strips by the same methods and at the same concentrations as described in Example 2 above. […]

[3] = system: Ae. aegypti Houston strain (pyrethroid susceptible); experiment: Toxicity assay on treated netting (Example 7), Houston strain
Protocol: Several compounds were tested to determine their toxic effect on Ae. aegypti mosquitoes. Three mosquito strains were tested—Houston which is pyrethroid susceptible, That which is pyrethroid tolerant and Isla Mujer which is metabolically pyrethroid resistant.
The toxicity assay involved a single chamber to which treated netting was added. Twenty (20) mosquitoes were transferred to the chamber. After 1 hour, the number of knocked down mosquitoes was recorded and all mosquitoes were transferred to holding cartoons. The mosquitoes were given a 10% sucrose-soaked cotton ball and returned to the insectary. Mortaility was measured after 24 hours. A control assay using acetone-treated netting was used. Six replicates were performed at each treatment concentration.

Ae. aegypti mosquitoes = experiment: Compound residual life: spatial repellency (Example 9)
Protocol: as §2
The spatial repellency assay of Example 3 was used to determine the residual life of compound 1405 on Ae. aegypti mosquitoes. Compound 1405 (neat, suspended in acetone) was applied by pipette to the netting material and the netting material was maintained at room temperature. The assay was performed at 0, 24 and 48 hours.
Nets were treated and tested at times 0 hour, 24 hour and 48 hour. The nets were held at room temperature between tests. The spatial activity index (“SAI” which varies from −1 to 1 with zero (0) indicating no response) and spatial repellency (SR) were determined. SAI is the measure of the proportion of females in the control chamber over the treated chamber after correcting for the proportion of females in the control chamber.

mosquitoes (Ae. aegypti) [4] = experiment: Compound residual life: contact irritancy (Example 10); conditions: for Number escaping (mean +/- SE), treated: 10 mosquitoes per run, 6 runs per net sample
Protocol: as §1
Contact irritancy tests (blind testing) were performed for several samples of compounds 1405 and 1406 at 0 weeks, 2 weeks, 4 weeks, 8 weeks and 12 weeks to determine the residual contact irritancy of the compounds on mosquitoes (Ae. aegypti). Between testing, the nets were hung in the lab and held at a temperature of 27-29° C. and 56-67% relative humidity. Each run was performed 6 times for each sample with 10 mosquitoes used in each run (60 mosquitoes total).

mosquitoes (Ae. aegypti) [5] = experiment: Compound residual life: spatial repellency (Example 11); conditions: 12 week test period
Protocol: The four compounds of formula I described in Example 2 were tested for spatial repellency (directed movement away from the chemical source without the insect making physical contact with the treated surface) at low doses on female Aedes aegypti (Thailand strain) mosquitoes. The spatial repellency response was determined by use of the spatial repellency assay disclosed by Grieco et al. in “A New Classification System for the Actions of IRS Chemicals Traditionally Used for Malaria Control” in Plos One, Issue 8 (2007) (available at www.plosone.org) which is incorporated herein by reference for all relevant and consistent purposes. The assay used was a cylindrical assembly that included a treatment chamber at one end and a control chamber at the other end. The treatment chamber included a netting strip (nylon organdy) that was treated with the insecticide of interest at the relevant dose. The treatment chamber and control chamber were connected by a clear cylinder and were separated from the clear cylinder by butterfly valves. Twenty (20) mosquitoes were introduced into the clear central chamber and the butterfly valves were opened after 30 seconds. After 10 minutes, the valves were closed and the number of mosquitoes in each chamber was counted. […]

[6] = Dose 0.025 nm/cm^2, Time 1 hour
[7] = Dose 0.025 nm/cm^2, Time 24 hours
[8] = Dose 0.0725 nm/cm^2, Time 1 hour
[9] = Dose 0.0725 nm/cm^2, Time 24 hours
[10] = Dose 0.125 nm/cm^2, Time 1 hour
[11] = Dose 0.125 nm/cm^2, Time 24 hours
[12] = Dose 0.25 nm/cm^2, Time 24 hours
[13] = Dose 2.5 nm/cm^2, Time 24 hours
[14] = Dose 2.5, Time 0 hr after net treatment
[15] = Dose 2.5, Time 24 hr after net treatment
[16] = Dose 25, Time 0 hr after net treatment
[17] = Dose 25, Time 24 hr after net treatment
[18] = Dose 25, Time 48 hr after net treatment

## CC1(C)C(C=C(Cl)C(F)(F)F)C1C(=O)OCc1ccc(F)c(C(F)(F)F)c1F (centres unmarked) [Compound 1405]
[1]
  contact irritancy (FIG. 1): showed contact irritancy at relatively low doses
[2]
  spatial repellency, dose compared with DDT (FIG. 2): showed repellency at a lower dose than DDT
[3]; [6]
  Houston (% dead (SE)): 100%
[3]; [7]
  Houston (% dead (SE)): 100%
[3]; [8]
  Houston (% dead (SE)): 100%
[3]; [9]
  Houston (% dead (SE)): 100%
[3]; [10]
  Houston (% dead (SE)): 100%
[3]; [11]
  Houston (% dead (SE)): 100%
[3]; Dose 0.25 nm/cm^2, Time 1 hour
  Houston (% dead (SE)): 100%
[3]; [12]
  Houston (% dead (SE)): 100%
[3]; Dose 2.5 nm/cm^2, Time 1 hour
  Houston (% dead (SE)): 100%
[3]; [13]
  Houston (% dead (SE)): 100%
Ae. aegypti mosquitoes; [14]
  SAI (SE) (spatial activity index, -1 to 1): 0.5(0.1)
  SR (spatial repellency): 21.5
Ae. aegypti mosquitoes; [15]
  SAI (SE) (spatial activity index, -1 to 1): 0.3(0.1)
  SR (spatial repellency): 18
Ae. aegypti mosquitoes; [16]
  SAI (SE) (spatial activity index, -1 to 1): 0.3(0.1)
  SR (spatial repellency): 21.5
Ae. aegypti mosquitoes; [17]
  SAI (SE) (spatial activity index, -1 to 1): 0.5(0.1)
  SR (spatial repellency): 22.5
Ae. aegypti mosquitoes; [18]
  SAI (SE) (spatial activity index, -1 to 1): 0.4(0.1)
  SR (spatial repellency): 22.5
Mosquitoes (Ae. aegypti) [4]; Time 0 week
  Percent escaping (mean ± SE): 90 ± 5% and 80 ± 5% and 85 ± 4% and 88 ± 5%
Mosquitoes (Ae. aegypti) [4]; Time 2 week
  Percent escaping (mean ± SE): 47 ± 6% and 42 ± 7% and 47 ± 3% and 47 ± 4%
  Number escaping (mean +/- SE), treated: 1.7 ± 0.6 and 2.2 ± 0.7 and 1.7 ± 0.4
Mosquitoes (Ae. aegypti) [4]; Time 8 week
  Number escaping (mean +/- SE), treated: 1.8 ± 0.5 and 2.2 ± 0.5 and 1.8 ± 0.9 and 1.5 ± 0.6

## CC1(C)C(C=C(Cl)Cl)C1C(=O)OCc1ccc(F)c(C(F)(F)F)c1F (centres unmarked) [Compound 1406]
[1]
  contact irritancy (FIG. 1): showed contact irritancy at relatively low doses
[3]; [6]
  Houston (% dead (SE)): 100%
[3]; [7]
  Houston (% dead (SE)): 100%
[3]; [8]
  Houston (% dead (SE)): 100%
[3]; [9]
  Houston (% dead (SE)): 100%
[3]; [10]
  Houston (% dead (SE)): 100%
[3]; [11]
  Houston (% dead (SE)): 100%
[3]; Dose 0.25 nm/cm^2, Time 1 hour
  Houston (% dead (SE)): 100%
[3]; [12]
  Houston (% dead (SE)): 100%
[3]; Dose 2.5 nm/cm^2, Time 1 hour
  Houston (% dead (SE)): 100%
[3]; [13]
  Houston (% dead (SE)): 100%
Mosquitoes (Ae. aegypti) [4]; 12 week test period, nets held at 27-29° C.
  residual contact irritant activity (in words): the most residual with the highest level of activity out to 12 weeks
Mosquitoes (Ae. aegypti) [4]; Time 0 week
  Percent escaping (mean ± SE): 80 ± 2% and 87 ± 4% and 87 ± 7% and 87 ± 10%
  Number escaping (mean +/- SE), treated: 3.8 ± 0.5 and 3.2 ± 0.5 and 3.2 ± 1.2 and 4.0 ± 1.0
Mosquitoes (Ae. aegypti) [4]; Time 2 week
  Percent escaping (mean ± SE): 57 ± 4% and 63 ± 5% and 58 ± 7% and 62 ± 8%
  Number escaping (mean +/- SE), treated: 2.5 ± 0.8 and 2.7 ± 0.3 and 2.2 ± 0.2
Mosquitoes (Ae. aegypti) [4]; Time 4 week
  Percent escaping (mean ± SE): 50 ± 10% and 47 ± 4% and 45 ± 4% and 35 ± 8%
  Number escaping (mean +/- SE), treated: 2.0 ± 0.4 and 2.3 ± 0.5 and 2.5 ± 0.4 and 2.5 ± 0.8
Mosquitoes (Ae. aegypti) [4]; Time 8 week
  Percent escaping (mean ± SE): 40 ± 10% and 37 ± 2% and 27 ± 7% and 28 ± 9%
Mosquitoes (Ae. aegypti) [4]; Time 12 week
  Percent escaping (mean ± SE): 37 ± 4% and 31 ± 4% and 22 ± 6% and 19 ± 5%
Mosquitoes (Ae. aegypti) [5]
  residual spatial repellent activity (in words): appeared to be the more residual of the two compounds tested
